# Assay results: patent US8163742B2, “Di-amino-substituted heterocyclic compounds and methods of use” (Amgen Inc., priority 2006, dated 2012)
# Test system: SCF-stimulated UT-7 cells
# Assay: SCF stimulated UT7 proliferation/survival assay
# Assay type: cell-based
# Conditions: Homo sapiens, average value
# Text: SCF and GM-CSF Stimulated UT7 Proliferation/Survival Assay:
# The purpose of this assay is to test the general anti-proliferative/cytotoxic effect of small molecule compounds on SCF or GM-CSF-stimulated UT-7 cells. Preventing SCF stimulated proliferation/survival is consistent with an on-mechanism effect whereas inhibition of GM-CSF driven proliferation/survival is indicative of off-target effects. UT-7 is a factor dependent human megakaryoblastic leukemia cell line that can be grown in either IL-3, GM-CSF, EPO or SCF (these cells have been confirmed to carry wild type c-kit receptor). Cells are maintained in growth media (IMDM, 10% HI-FBS, 1×PGS, 1 ng/mL GM-CSF). […] The amount of ATP is then measured as a surrogate marker for cell viability. This is accomplished by adding 50 μL of Perkin Elmer ATP 1 step reagent (as per instructed in the reagent manual, Cat. No. 6016739), incubating at RT for 15 min and reading the luminescence with a Perkin Elmer Topcount NXT™HTS (model c384) plate reader. The amount of SCF or GM-CSF stimulated viable cells in the presence of compound compared with in the presence of vehicle alone (HI control) is calculated using the formula: % control (POC)=(cpd−average LO)/(average HI−average LO)*100. […]
structure (smiles),measurement,value
"FC(F)(F)c1cccc(Nc2noc3c(Nc4nccc(-c5cccnc5)n4)c(Cl)ccc23)c1 [Example 1, 6-chloro-N-7-(4-(pyridin-3-yl)pyrimidin-2-yl)-N3-(3-(trifluoromethyl)phenyl)benzo[d]isoxazole-3,7-diamine]",IC50,~44 nM
